{"source": "ChEMBL document CHEMBL2203238", "about": "“Hit to Lead optimization of a novel class of squarate-containing polo-like kinases inhibitors” (Bioorg Med Chem Lett, 2012)", "key": {"[1]": {"target": "Macrophage colony-stimulating factor 1 receptor (Homo sapiens, UniProt P07333)", "sequence (P07333 whole entry)": "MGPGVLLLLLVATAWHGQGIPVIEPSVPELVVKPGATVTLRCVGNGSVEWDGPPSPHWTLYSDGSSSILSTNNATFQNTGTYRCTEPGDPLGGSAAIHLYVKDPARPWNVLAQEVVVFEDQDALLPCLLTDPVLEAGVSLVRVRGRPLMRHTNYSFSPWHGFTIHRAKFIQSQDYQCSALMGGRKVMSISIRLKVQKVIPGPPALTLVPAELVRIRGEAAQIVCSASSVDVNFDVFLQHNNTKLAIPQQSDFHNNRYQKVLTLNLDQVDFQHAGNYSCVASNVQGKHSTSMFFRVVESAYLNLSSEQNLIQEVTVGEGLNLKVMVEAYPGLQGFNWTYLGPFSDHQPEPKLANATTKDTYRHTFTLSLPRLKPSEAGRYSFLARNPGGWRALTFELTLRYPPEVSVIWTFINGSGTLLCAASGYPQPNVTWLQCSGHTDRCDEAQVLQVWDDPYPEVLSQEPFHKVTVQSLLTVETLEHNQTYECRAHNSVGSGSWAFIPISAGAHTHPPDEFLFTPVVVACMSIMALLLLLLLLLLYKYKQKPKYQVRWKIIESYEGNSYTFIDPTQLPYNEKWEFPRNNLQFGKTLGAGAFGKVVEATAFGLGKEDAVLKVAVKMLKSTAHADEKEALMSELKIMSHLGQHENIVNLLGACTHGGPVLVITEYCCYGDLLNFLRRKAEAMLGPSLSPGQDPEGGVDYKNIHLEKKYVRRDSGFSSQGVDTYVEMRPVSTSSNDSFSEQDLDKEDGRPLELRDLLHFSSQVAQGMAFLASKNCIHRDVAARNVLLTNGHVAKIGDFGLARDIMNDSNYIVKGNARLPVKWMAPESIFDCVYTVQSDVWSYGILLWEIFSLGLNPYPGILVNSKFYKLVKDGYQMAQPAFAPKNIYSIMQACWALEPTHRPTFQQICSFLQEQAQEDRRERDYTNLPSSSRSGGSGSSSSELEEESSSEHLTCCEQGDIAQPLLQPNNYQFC", "assay": "Inhibition of recombinant CSF1R after 1 hr by scintillation counter analysis in presence of gamma-[33P]ATP"}, "[2]": {"target": "Tyrosine-protein kinase ITK/TSK (Homo sapiens, UniProt Q08881)", "assay": "Inhibition of recombinant ITK after 1 hr by scintillation counter analysis in presence of gamma-[33P]ATP"}, "Ephrin type-A receptor 2": {"target": "Ephrin type-A receptor 2 (Homo sapiens, UniProt P29317)", "sequence (P29317 whole entry)": "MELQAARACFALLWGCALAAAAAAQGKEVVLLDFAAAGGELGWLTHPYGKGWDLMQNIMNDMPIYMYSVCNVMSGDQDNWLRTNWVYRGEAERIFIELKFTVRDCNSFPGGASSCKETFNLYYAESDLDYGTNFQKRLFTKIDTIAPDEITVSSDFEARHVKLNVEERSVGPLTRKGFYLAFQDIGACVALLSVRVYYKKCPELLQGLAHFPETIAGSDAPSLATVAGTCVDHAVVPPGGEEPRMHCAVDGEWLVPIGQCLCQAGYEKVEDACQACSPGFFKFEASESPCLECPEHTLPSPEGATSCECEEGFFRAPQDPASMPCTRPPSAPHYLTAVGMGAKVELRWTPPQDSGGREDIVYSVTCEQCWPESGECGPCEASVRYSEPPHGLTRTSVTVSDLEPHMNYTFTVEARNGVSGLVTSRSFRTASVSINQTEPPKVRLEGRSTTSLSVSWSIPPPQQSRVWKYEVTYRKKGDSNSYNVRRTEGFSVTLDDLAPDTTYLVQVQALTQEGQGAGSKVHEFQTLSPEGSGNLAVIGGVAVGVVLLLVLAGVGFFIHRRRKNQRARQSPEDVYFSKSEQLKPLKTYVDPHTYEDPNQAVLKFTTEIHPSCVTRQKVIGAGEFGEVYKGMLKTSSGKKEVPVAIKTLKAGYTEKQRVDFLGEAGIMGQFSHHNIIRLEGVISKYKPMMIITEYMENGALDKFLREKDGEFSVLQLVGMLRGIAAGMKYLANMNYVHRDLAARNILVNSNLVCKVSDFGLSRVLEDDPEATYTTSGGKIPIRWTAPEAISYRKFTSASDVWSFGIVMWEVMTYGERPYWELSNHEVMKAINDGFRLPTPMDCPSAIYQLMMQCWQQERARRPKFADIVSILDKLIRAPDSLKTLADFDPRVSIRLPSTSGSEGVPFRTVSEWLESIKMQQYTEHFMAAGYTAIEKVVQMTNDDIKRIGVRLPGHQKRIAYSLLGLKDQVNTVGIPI", "assay": "Inhibition of recombinant EPHA2 after 1 hr by scintillation counter analysis in presence of gamma-[33P]ATP"}, "[3]": {"target": "Tyrosine-protein kinase JAK2 (Homo sapiens, UniProt O60674)", "assay": "Inhibition of recombinant JAK2 after 1 hr by scintillation counter analysis in presence of gamma-[33P]ATP"}, "[4]": {"target": "Serine/threonine-protein kinase pim-2 (Homo sapiens, UniProt Q9P1W9)", "assay": "Inhibition of recombinant PIM2 after 1 hr by scintillation counter analysis in presence of gamma-[33P]ATP"}, "[5]": {"target": "Rho-associated protein kinase 1 (Homo sapiens, UniProt Q13464)", "assay": "Inhibition of recombinant ROCK1 after 1 hr by scintillation counter analysis in presence of gamma-[33P]ATP"}, "[6]": {"target": "Calcium/calmodulin-dependent protein kinase type IV (Homo sapiens, UniProt Q16566)", "assay": "Inhibition of recombinant CAMK4 after 1 hr by scintillation counter analysis in presence of gamma-[33P]ATP"}, "[7]": {"target": "Vascular endothelial growth factor receptor 1 (Homo sapiens, UniProt P17948)", "assay": "Inhibition of recombinant FLT1 after 1 hr by scintillation counter analysis in presence of gamma-[33P]ATP"}, "[8]": {"assay": "Inhibition of recombinant PKA after 1 hr by scintillation counter analysis in presence of gamma-[33P]ATP"}, "[9]": {"target": "Non-receptor tyrosine-protein kinase TYK2 (Homo sapiens, UniProt P29597)", "assay": "Inhibition of recombinant TYK2 after 1 hr by scintillation counter analysis in presence of gamma-[33P]ATP"}, "[10]": {"target": "BDNF/NT-3 growth factors receptor (Homo sapiens, UniProt Q16620)", "assay": "Inhibition of recombinant TRKB after 1 hr by scintillation counter analysis in presence of gamma-[33P]ATP"}, "[11]": {"target": "Serine/threonine-protein kinase PLK3 (Homo sapiens, UniProt Q9H4B4)", "sequence (Q9H4B4 whole entry)": "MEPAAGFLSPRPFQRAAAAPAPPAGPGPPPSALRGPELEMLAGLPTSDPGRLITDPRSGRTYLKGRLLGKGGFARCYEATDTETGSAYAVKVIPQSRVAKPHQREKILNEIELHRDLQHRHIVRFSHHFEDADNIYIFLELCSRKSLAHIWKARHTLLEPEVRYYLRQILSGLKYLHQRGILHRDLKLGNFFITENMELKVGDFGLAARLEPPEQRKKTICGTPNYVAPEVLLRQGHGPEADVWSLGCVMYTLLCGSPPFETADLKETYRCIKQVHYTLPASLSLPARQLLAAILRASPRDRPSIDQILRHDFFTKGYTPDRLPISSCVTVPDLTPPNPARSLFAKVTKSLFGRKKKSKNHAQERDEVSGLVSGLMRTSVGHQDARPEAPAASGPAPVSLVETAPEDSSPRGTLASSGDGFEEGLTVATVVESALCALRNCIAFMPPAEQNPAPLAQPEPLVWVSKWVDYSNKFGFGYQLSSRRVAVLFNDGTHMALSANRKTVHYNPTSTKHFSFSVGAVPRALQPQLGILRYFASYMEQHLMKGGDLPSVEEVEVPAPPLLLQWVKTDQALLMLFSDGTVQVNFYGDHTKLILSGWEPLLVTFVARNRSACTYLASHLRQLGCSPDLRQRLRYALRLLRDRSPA", "assay": "Inhibition of recombinant PLK3 after 1 hr by scintillation counter analysis in presence of gamma-[33P]ATP"}, "[12]": {"target": "MAP/microtubule affinity-regulating kinase 3 (Homo sapiens, UniProt P27448)", "sequence (P27448 whole entry)": "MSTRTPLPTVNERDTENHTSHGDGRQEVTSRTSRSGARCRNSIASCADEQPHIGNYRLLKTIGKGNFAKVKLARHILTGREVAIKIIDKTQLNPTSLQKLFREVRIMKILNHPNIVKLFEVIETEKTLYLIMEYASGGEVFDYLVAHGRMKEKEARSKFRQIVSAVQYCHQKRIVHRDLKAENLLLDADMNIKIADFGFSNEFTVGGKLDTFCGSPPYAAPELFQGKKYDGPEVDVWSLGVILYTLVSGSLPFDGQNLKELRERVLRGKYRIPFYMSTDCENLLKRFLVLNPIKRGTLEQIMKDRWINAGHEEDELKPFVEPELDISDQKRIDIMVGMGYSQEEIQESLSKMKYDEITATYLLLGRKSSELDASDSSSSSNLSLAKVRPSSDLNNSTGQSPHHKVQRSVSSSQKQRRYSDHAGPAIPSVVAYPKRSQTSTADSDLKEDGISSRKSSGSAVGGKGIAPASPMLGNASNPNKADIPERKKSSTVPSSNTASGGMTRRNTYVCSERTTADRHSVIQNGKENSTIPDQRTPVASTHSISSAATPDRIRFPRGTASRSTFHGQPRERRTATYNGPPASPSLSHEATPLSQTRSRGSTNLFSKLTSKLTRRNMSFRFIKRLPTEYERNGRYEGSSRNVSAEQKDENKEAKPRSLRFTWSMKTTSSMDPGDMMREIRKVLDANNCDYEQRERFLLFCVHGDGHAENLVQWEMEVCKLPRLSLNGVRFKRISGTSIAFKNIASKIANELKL", "assay": "Inhibition of recombinant CTAK1 after 1 hr by scintillation counter analysis in presence of gamma-[33P]ATP"}, "[13]": {"target": "Mitogen-activated protein kinase 13 (Homo sapiens, UniProt O15264)", "assay": "Inhibition of recombinant P38delta after 1 hr by scintillation counter analysis in presence of gamma-[33P]ATP"}, "[14]": {"target": "Tyrosine-protein kinase JAK3 (Homo sapiens, UniProt P52333)", "assay": "Inhibition of recombinant JAK3 after 1 hr by scintillation counter analysis in presence of gamma-[33P]ATP"}, "[15]": {"target": "Mitogen-activated protein kinase 9 (Homo sapiens, UniProt P45984)", "assay": "Inhibition of recombinant JNK2A2 after 1 hr by scintillation counter analysis in presence of gamma-[33P]ATP"}, "[16]": {"target": "Serine/threonine-protein kinase PAK 1 (Homo sapiens, UniProt Q13153)", "sequence (Q13153 whole entry)": "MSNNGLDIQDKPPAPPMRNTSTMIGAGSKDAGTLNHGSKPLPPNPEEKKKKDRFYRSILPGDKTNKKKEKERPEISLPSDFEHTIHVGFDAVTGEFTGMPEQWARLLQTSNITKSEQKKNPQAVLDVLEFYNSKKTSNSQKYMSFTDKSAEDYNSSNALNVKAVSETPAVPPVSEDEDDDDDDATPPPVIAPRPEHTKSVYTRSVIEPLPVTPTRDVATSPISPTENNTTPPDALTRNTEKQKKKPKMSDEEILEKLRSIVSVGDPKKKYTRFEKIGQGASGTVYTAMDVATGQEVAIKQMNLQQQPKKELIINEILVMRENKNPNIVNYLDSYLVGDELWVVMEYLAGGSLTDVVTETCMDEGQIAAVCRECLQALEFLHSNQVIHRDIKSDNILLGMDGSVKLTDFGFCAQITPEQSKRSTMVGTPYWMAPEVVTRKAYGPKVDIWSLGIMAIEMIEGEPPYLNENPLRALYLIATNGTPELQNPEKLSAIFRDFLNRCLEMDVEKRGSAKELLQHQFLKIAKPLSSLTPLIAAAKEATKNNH", "assay": "Inhibition of recombinant PAK1 after 1 hr by scintillation counter analysis in presence of gamma-[33P]ATP"}, "[17]": {"assay": "Volume of distribution in mouse", "type": "ADME, organism-based", "conditions": "in vivo"}, "[18]": {"target": "Serine/threonine-protein kinase Nek2 (Homo sapiens, UniProt P51955)", "assay": "Inhibition of recombinant NEK2 after 1 hr by scintillation counter analysis in presence of gamma-[33P]ATP"}, "[19]": {"assay": "Cmax in mouse at 50 mg/kg, po measured at 1 hr", "type": "ADME, organism-based", "set-up": "dose 50 mg/kg, route oral", "conditions": "in vivo"}, "[20]": {"target": "Dual specificity tyrosine-phosphorylation-regulated kinase 1A (Homo sapiens, UniProt Q13627)", "assay": "Inhibition of recombinant DYRK1A after 1 hr by scintillation counter analysis in presence of gamma-[33P]ATP"}, "[21]": {"target": "Receptor tyrosine-protein kinase erbB-4 (Homo sapiens, UniProt Q15303)", "assay": "Inhibition of recombinant ERBB4 after 1 hr by scintillation counter analysis in presence of gamma-[33P]ATP"}, "[22]": {"target": "Vascular endothelial growth factor receptor 2 (Homo sapiens, UniProt P35968)", "assay": "Inhibition of recombinant KDR after 1 hr by scintillation counter analysis in presence of gamma-[33P]ATP"}, "[23]": {"target": "RAC-gamma serine/threonine-protein kinase (Homo sapiens, UniProt Q9Y243)", "assay": "Inhibition of recombinant AKT3 after 1 hr by scintillation counter analysis in presence of gamma-[33P]ATP"}, "[24]": {"target": "Serine/threonine-protein kinase Chk2 (Homo sapiens, UniProt O96017)", "sequence (O96017 whole entry)": "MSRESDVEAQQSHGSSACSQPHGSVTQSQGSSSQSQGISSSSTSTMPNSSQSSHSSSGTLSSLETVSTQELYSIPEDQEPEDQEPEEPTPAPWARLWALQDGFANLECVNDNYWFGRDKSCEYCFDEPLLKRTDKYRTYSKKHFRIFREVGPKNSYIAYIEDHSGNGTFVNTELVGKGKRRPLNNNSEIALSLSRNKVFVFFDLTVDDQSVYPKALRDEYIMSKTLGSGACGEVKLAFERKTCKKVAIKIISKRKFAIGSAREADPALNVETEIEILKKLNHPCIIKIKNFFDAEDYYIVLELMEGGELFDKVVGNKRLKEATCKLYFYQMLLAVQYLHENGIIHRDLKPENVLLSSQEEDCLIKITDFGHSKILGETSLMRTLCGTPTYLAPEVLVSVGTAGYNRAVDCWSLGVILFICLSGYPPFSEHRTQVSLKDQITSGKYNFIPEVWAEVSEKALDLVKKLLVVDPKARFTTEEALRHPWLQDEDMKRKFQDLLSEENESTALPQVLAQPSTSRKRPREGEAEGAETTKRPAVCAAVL", "assay": "Inhibition of recombinant CHK2 after 1 hr by scintillation counter analysis in presence of gamma-[33P]ATP"}, "[25]": {"target": "Cyclin-dependent kinase 5 (Homo sapiens, UniProt Q00535)", "assay": "Inhibition of recombinant CDK5 after 1 hr by scintillation counter analysis in presence of gamma-[33P]ATP"}, "[26]": {"target": "Tyrosine-protein kinase Blk (Homo sapiens, UniProt P51451)", "sequence (P51451 whole entry)": "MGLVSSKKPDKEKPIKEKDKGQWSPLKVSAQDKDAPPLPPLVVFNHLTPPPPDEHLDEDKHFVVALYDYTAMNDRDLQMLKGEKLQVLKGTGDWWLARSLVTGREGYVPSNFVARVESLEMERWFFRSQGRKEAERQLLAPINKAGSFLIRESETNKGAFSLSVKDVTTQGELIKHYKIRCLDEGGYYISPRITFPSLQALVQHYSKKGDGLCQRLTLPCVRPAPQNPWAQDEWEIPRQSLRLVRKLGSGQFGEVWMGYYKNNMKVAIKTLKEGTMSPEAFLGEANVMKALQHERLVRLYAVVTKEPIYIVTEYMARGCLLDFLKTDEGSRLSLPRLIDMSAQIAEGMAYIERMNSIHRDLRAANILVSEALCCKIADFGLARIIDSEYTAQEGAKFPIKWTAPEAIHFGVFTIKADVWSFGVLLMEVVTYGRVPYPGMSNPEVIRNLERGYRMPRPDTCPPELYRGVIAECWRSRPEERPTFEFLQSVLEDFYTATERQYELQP", "assay": "Inhibition of recombinant BLK after 1 hr by scintillation counter analysis in presence of gamma-[33P]ATP"}, "[27]": {"target": "MAP kinase-activated protein kinase 3 (Homo sapiens, UniProt Q16644)", "assay": "Inhibition of recombinant MK3 after 1 hr by scintillation counter analysis in presence of gamma-[33P]ATP"}, "[28]": {"target": "Serine/threonine-protein kinase 3 (Homo sapiens, UniProt Q13188)", "assay": "Inhibition of recombinant MST2 after 1 hr by scintillation counter analysis in presence of gamma-[33P]ATP"}}, "data": [{"smiles": "CC(C)(C)Nc1c(Nc2ccnc(Nc3ccc(-c4ccncc4)cc3)n2)c(=O)c1=O", "values": [{"measurement": "Ki", "setting": "[1]", "value": 2100, "unit": "nM"}, {"measurement": "Ki", "setting": "[2]", "value": "> 1500", "unit": "nM"}, {"measurement": "Ki", "setting": "Ephrin type-A receptor 2", "value": "> 2800", "unit": "nM"}, {"measurement": "Ki", "setting": "[3]", "value": 920, "unit": "nM"}, {"measurement": "Ki", "setting": "[4]", "value": "> 1400", "unit": "nM"}, {"measurement": "Ki", "setting": "[5]", "value": 220, "unit": "nM"}, {"measurement": "Ki", "setting": "[6]", "value": "> 8500", "unit": "nM"}, {"measurement": "Ki", "setting": "[7]", "value": 14, "unit": "nM"}, {"measurement": "Ki", "setting": "[8]", "value": "> 7500", "unit": "nM"}, {"measurement": "Ki", "setting": "[9]", "value": "> 1900", "unit": "nM"}, {"measurement": "Ki", "setting": "[10]", "value": "> 4500", "unit": "nM"}, {"measurement": "Ki", "setting": "[11]", "value": 2, "unit": "nM"}, {"measurement": "Ki", "setting": "[12]", "value": 4830, "unit": "nM"}, {"measurement": "Ki", "setting": "[13]", "value": 5900, "unit": "nM"}, {"measurement": "Ki", "setting": "[14]", "value": "> 1700", "unit": "nM"}, {"measurement": "Ki", "setting": "[15]", "value": 262, "unit": "nM"}, {"measurement": "Ki", "setting": "[16]", "value": "> 9700", "unit": "nM"}, {"measurement": "Vd", "setting": "[17]", "value": 3.7, "unit": "L/kg"}, {"measurement": "Ki", "setting": "[18]", "value": "> 9200", "unit": "nM"}, {"measurement": "Cmax", "setting": "[19]", "value": 5.4, "unit": "µM"}, {"measurement": "Ki", "setting": "[20]", "value": "> 6800", "unit": "nM"}, {"measurement": "Ki", "setting": "[21]", "value": "> 3700", "unit": "nM"}, {"measurement": "Ki", "setting": "[22]", "value": 98, "unit": "nM"}, {"measurement": "Ki", "setting": "[23]", "value": "> 9000", "unit": "nM"}, {"measurement": "Ki", "setting": "[24]", "value": 88, "unit": "nM"}, {"measurement": "Ki", "setting": "[25]", "value": 416, "unit": "nM"}, {"measurement": "Ki", "setting": "[26]", "value": "> 1400", "unit": "nM"}, {"measurement": "Ki", "setting": "[27]", "value": "> 9200", "unit": "nM"}, {"measurement": "Ki", "setting": "[28]", "value": 2900, "unit": "nM"}]}]}
